Measurements taken from BindingDB's records for doi:10.7270/Q2M32T6M (Vanderbilt Screening Center for GPCRs, Ion Channels and …, 2009).

Target: T1, Solute carrier family 12 member 5 (Homo sapiens, UniProt Q9H2X9)
T1 sequence (Q9H2X9 whole entry): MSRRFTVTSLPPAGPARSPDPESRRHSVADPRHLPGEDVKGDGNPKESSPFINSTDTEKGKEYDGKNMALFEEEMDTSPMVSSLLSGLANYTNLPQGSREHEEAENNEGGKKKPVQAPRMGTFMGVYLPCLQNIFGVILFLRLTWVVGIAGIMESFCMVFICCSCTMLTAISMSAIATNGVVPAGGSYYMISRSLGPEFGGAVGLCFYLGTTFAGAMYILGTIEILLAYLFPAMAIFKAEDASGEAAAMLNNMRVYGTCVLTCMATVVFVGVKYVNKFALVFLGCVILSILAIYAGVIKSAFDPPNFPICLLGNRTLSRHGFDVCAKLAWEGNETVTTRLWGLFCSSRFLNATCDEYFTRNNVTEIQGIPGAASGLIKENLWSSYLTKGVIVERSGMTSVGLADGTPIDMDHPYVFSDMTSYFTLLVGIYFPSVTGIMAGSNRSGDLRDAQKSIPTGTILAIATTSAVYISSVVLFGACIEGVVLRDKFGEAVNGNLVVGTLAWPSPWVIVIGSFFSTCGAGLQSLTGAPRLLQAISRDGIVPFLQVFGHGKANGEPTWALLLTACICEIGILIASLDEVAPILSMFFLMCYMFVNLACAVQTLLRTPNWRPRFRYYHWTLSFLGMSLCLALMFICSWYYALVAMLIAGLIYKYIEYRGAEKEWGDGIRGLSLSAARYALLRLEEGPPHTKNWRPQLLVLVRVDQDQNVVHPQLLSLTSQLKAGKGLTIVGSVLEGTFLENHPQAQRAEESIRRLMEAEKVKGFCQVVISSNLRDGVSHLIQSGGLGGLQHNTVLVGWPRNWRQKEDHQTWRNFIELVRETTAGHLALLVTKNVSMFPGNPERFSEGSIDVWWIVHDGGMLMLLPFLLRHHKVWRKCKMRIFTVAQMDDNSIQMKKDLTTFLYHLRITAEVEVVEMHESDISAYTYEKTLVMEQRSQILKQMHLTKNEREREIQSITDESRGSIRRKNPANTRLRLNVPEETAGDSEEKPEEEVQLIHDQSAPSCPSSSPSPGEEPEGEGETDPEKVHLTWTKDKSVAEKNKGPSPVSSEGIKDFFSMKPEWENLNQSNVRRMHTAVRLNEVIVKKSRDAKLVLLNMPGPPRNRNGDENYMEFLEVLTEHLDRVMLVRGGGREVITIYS
Assay: KCC2 modulator potency by thallium flux, dose response, cell-based, HEK293 KCC2, FluoZin-2 fluorescence (AID 1736)
Conditions: not given

Row | Compound | EC50
1 | CC1Cc2ccccc2N1C(=O)CSc1nnc(CNc2ccccc2)o1 (stereo not given) [1-(2-Methyl-2,3-dihydro-indol-1-yl)-2-(5-phenylaminomethyl-[1,3,4]oxadiazol-2-ylsulfanyl)-ethanone] | 0.137 µM
2 | O=C(OCC(=O)N1CCc2ccccc2C1)c1ccc(N2CCOCC2)c([N+](=O)[O-])c1 [4-(4-morpholinyl)-3-nitrobenzoic acid [2-(3,4-dihydro-1H-isoquinolin-2-yl)-2-oxoethyl] ester] | 11.5 µM
3 | CCOC(=O)c1c(C)[nH]c(N=Nc2ccccc2)c1C [(5Z)-2,4-dimethyl-5-(phenylhydrazinylidene)-3-pyrrolecarboxylic acid ethyl ester] | 5.25 µM
4 | Cc1ccc(-c2n[nH]c(=S)n2NC=CCc2ccccc2[N+](=O)[O-])cc1 | 1.28 µM
5 | O=C(CN1C(=O)NC2(CCCC2)C1=O)Nc1nc(-c2ccc(F)cc2)cs1 [2-(2,4-diketo-1,3-diazaspiro[4.4]nonan-3-yl)-N-[4-(4-fluorophenyl)thiazol-2-yl]acetamide] | 0.156 µM
6 | O=C(O)CCn1c(SCc2cccc3ccccc23)nc2ccccc21 [3-[2-(1-naphthalenylmethylthio)-1-benzimidazolyl]propanoic acid] | 0.677 µM
7 | CCN(CC)c1ccc2c(C)c(-c3ccc(N)cc3)c(=O)oc2c1 [3-(4-aminophenyl)-7-(diethylamino)-4-methyl-1-benzopyran-2-one] | 1.15 µM
8 | O=C(O)CCc1cc(I)c(Oc2ccc(O)c(I)c2)c(I)c1 [3-[4-(4-hydroxy-3-iodophenoxy)-3,5-diiodophenyl]propanoic acid] | 4.25 µM
9 | CN(CC(=O)N1CCN(Cc2ccccc2)CC1)S(=O)(=O)c1cccc2nsnc12 [MLS000674627] | 0.27 µM
10 | Cc1[nH]c2ccccc2c1Cc1n[nH]c(=S)n1C | 31.5 µM
11 | Cc1nn(-c2nc3ccccc3[nH]2)c(N)c1-c1ccccc1 [MLS000063763] | 24.4 µM
12 | Cc1cc([N+](=O)[O-])ccc1NCc1ccccc1 [2-methyl-4-nitro-N-(phenylmethyl)aniline] | 3.75 µM
13 | O=C(NCc1nc(-c2ccccc2)cs1)c1ccccc1 [MLS000661971] | 544 µM
14 | COc1cccc(Nc2nnc(S)s2)c1 [5-(3-methoxyanilino)-3H-1,3,4-thiadiazole-2-thione] | 3.43 µM
15 | Cc1onc(C(=O)N2CCN(Cc3ccccc3)CC2)c1[N+](=O)[O-] [(4-benzylpiperazin-1-yl)-(5-methyl-4-nitro-1,2-oxazol-3-yl)methanone] | 6.9 µM
16 | O=C(Nc1ccc2oc(-c3ccccc3F)nc2c1)c1ccco1 [MLS000709180] | 827 µM
17 | Cc1cccc(OCc2nnc(SCC(=O)c3cccs3)n2C)c1C [2-[5-(2,3-Dimethyl-phenoxymethyl)-4-methyl-4H-[1,2,4]triazol-3-ylsulfanyl]-1-thiophen-2-yl-ethanone] | 9.24 µM
18 | Fc1ccc(CSc2nncn2NC/C=C/c2ccccc2)cc1 [3-[(4-fluorobenzyl)thio]-N-(3-phenyl-2-propen-1-yl)-4H-1,2,4-triazol-4-amine] | 4.5 µM
19 | O=C(NC(=S)Nc1nc(-c2cccc([N+](=O)[O-])c2)cs1)c1ccccc1Cl [2-chloranyl-N-[[4-(3-nitrophenyl)-1,3-thiazol-2-yl]carbamothioyl]benzamide] | 7.48 µM
20 | Cc1cc(C(=O)COC(=O)CCc2nc3ccccc3s2)c(C)n1C [3-(1,3-benzothiazol-2-yl)propanoic acid [2-oxo-2-(1,2,5-trimethyl-3-pyrrolyl)ethyl] ester] | 1.94 µM

Row | Compound | EC50
21 | O=C(COC(=O)c1cc([N+](=O)[O-])ccc1NCCO)c1ccccc1 [2-(2-hydroxyethylamino)-5-nitro-benzoic acid phenacyl ester] | 31.1 µM
22 | Cc1cccc(OCCc2nnc(N)s2)c1C [5-[2-(2,3-Dimethyl-phenoxy)-ethyl]-[1,3,4]thiadiazol-2-ylamine] | 6.16 µM
23 | O=C(O)CC/C(=C\c1ccc(N2CCCC2)c([N+](=O)[O-])c1)c1nc2ccccc2s1 [(E)-4-(1,3-benzothiazol-2-yl)-5-(3-nitro-4-pyrrolidin-1-yl-phenyl)pent-4-enoic acid] | 233 µM
24 | Cc1cccc(NC(=S)NN=C2C(=O)N(CN3CCOCC3)c3ccccc32)c1C [(3Z)-1-(morpholin-4-ylmethyl)-1H-indole-2,3-dione 3-[N-(2,3-dimethylphenyl)thiosemicarbazone]] | 6.09 µM
25 | O=C(CSc1ccc(-c2cccs2)nn1)Nc1ccccc1F [MLS000621184] | 1.68 µM
26 | CS(=O)(=O)N(CC(=O)N1CCN(c2ccc(F)cc2)CC1)c1ccc(F)c(Cl)c1 [MLS000531433] | 20.6 µM
27 | Sc1nnc(Nc2ccccc2)s1 [5-anilino-3H-1,3,4-thiadiazole-2-thione] | 633 µM
28 | O=C(O)CCN(Cc1ccccc1)S(=O)(=O)c1c(Cl)cccc1Cl [3-[(2,6-dichlorophenyl)sulfonyl-(phenylmethyl)amino]propanoic acid] | 86000 µM
29 | Cc1ccc(/C=C2\SC(=S)N(c3c(C)n(C)n(-c4ccccc4)c3=O)C2=O)cc1 [3-(1,5-dimethyl-3-oxo-2-phenyl-2,3-dihydro-1H-pyrazol-4-yl)-5-(4-methylbenzylidene)-2-thioxo-1,3-thiazolidin-4-one] | 2.3 µM
30 | CC(=O)NC(C)C(=O)OCC(=O)c1ccc(-c2ccccc2)cc1 (stereo not given) [2-acetamidopropanoic acid [2-oxo-2-(4-phenylphenyl)ethyl] ester] | 13.7 µM
31 | Cn1nccc1C(=O)OCC(=O)Nc1nc(-c2ccccc2)cs1 [2-Methyl-2H-pyrazole-3-carboxylic acid (4-phenyl-thiazol-2-ylcarbamoyl)-methyl ester] | 6.08 µM
32 | C=C(C)Cn1c(N2CCC(Cc3ccccc3)CC2)nc2c1c(=O)[nH]c(=O)n2C [3-methyl-7-(2-methylprop-2-enyl)-8-[4-(phenylmethyl)-1-piperidinyl]purine-2,6-dione] | 15.8 µM
33 | CCC(CC)NC(=O)CSc1nnc(-c2c[nH]c3ccccc23)o1 [MLS001017505] | 2.04 µM
34 | COc1ccc(N(CC(=O)Nc2cccc(C)c2C)S(=O)(=O)c2c(C)n[nH]c2C)cc1 [N-(2,3-dimethylphenyl)-2-[(3,5-dimethyl-1H-pyrazol-4-yl)sulfonyl-(4-methoxyphenyl)amino]ethanamide] | 38.6 µM
35 | O=[N+]([O-])c1cc(-n2c(O)c3c(c2O)CCCC3)ccc1NC1CCN(Cc2ccccc2)CC1 [2-[3-nitro-4-[[1-(phenylmethyl)-4-piperidinyl]amino]phenyl]-3a,4,5,6,7,7a-hexahydroisoindole-1,3-dione] | 28.1 µM
36 | O=C(OCn1ncc(Cl)c(Cl)c1=O)c1ccc(F)cc1 [(4,5-dichloro-6-oxopyridazin-1-yl)methyl 4-fluorobenzoate] | 3.32 µM
37 | O=C(C1CCN(c2nnc(-n3cccc3)s2)CC1)N1CCc2ccccc2C1 [3,4-dihydro-1H-isoquinolin-2-yl-[1-(5-pyrrol-1-yl-1,3,4-thiadiazol-2-yl)-4-piperidyl]methanone] | 9.6 µM
38 | O=C(NC(=S)Nc1nc(-c2cccc([N+](=O)[O-])c2)cs1)c1cc(Cl)ccc1Cl [2,5-bis(chloranyl)-N-[[4-(3-nitrophenyl)-1,3-thiazol-2-yl]carbamothioyl]benzamide] | 10.8 µM
39 | CC(C)(CN=C(S)NCCc1ccccc1)CN=C(S)NCCc1ccccc1 [1-[2,2-dimethyl-3-(2-phenylethylcarbamothioylamino)propyl]-3-(2-phenylethyl)thiourea] | 16.7 µM

Same assay, conditions: inactive by the depositor's call

Row | Compound | EC50
40 | CC(C)c1ccc(NC(=O)c2cnn(-c3ccccc3)c2NC(=O)c2ccco2)cc1 [5-(2-furoylamino)-N-p-cumenyl-1-phenyl-pyrazole-4-carboxamide] | 12.1 µM
41 | Cc1ccc(S(=O)(=O)NCc2ccc(C(=O)N3CCN(Cc4ccccc4)CC3)cc2)cc1 [4-methyl-N-[[4-[4-(phenylmethyl)piperazin-1-yl]carbonylphenyl]methyl]benzenesulfonamide] | 6.59 µM
42 | CC(C)CNC(=O)c1ccc(COc2ccc(Cl)cc2Cl)o1 [5-[(2,4-dichlorophenoxy)methyl]-N-(2-methylpropyl)-2-furancarboxamide] | 10.5 µM
43 | Cc1nc(SCC(=O)N2CCc3ccccc3C2)c2c(C)c(C)sc2n1 [1-(3,4-Dihydro-1H-isoquinolin-2-yl)-2-(2,5,6-trimethyl-thieno[2,3-d]pyrimidin-4-ylsulfanyl)-ethanone] | 14.7 µM
44 | N=C1SCC(=O)N1c1ncc(Cc2cccc(Cl)c2)s1 [2-azanylidene-3-[5-[(3-chlorophenyl)methyl]-1,3-thiazol-2-yl]-1,3-thiazolidin-4-one] | 3.13 µM
45 | COc1ccc(-c2nnc(-c3ccc(OCC(C)C)cc3)o2)cc1 [2-(4-Isobutoxy-phenyl)-5-(4-methoxy-phenyl)-[1,3,4]oxadiazole] | 0.00127 µM
